Measured values: patent EP0162576A1, “Ethanolamine compounds” (GLAXO GROUP LIMITED, priority 1984, dated 1985)
Counter-ions that a name gives are not always drawn.

Experiments:
[1] = molecular target: T1, β2-adrenoreceptors (Cavia porcellus, UniProt Q8K4Z4); test: Guinea-pig tracheal strip preparation (relaxation of PGF2a-contracted trachea); type: cell-based; conditions: equipotent concentration = EC50 test compound / EC50 isoprenaline; tracheal rings contracted with prostaglandin F2a (2.9x10^-6M), 37°
T1 construct: from tissue; host or cells: isolated guinea-pig trachea (tracheal rings)
Protocol: The compounds according to the invention have a selective stimulant action at P2-adrenoreceptors, which furthermore is of a particularly advantageous profile. […] Compounds according to the invention have shown a particularly long duration of action in this test.
The stimulant action at β2-adrenoreceptors of compounds of the invention was determined using the following:
GUINEA-PIG TRACHEAL STRIP PREPARATION
Tracheal rings were mounted in a superfusion apparatus, and continuously superfused with oxygenated physiological (Kreb's) solution containing indomethacin (2.4x10 ^6M) and atropine (4x10^-7M) at 37° at a rate of 2ml/min. Changes in tension of the preparation were measured using an isometric strain gauge. Preparations were contracted for the duration of the test by the inclusion of prostaglandin F2a (2.9x10^-6M) in the superfusion fluid. Two bolus dose-effect curves to the standard, isoprenaline, (1x10^-12-1x10^-9 moles) were obtained at the start of each test in a cumulative fashion, allowing the relaxation obtained with each to reach its own maximum before the next increment was made. On completion of this dose-effect curve, sufficient time was allowed for the tissue to recover (15-30min). After this time, sequential concentration-effect curves were constructed for first isoprenaline and then the test compound. These were constructed as follows: a low concentration (isoprenaline 3x10-^10M; test compound 1x10^-10M) was infused until any response obtained had reached its maximum, then the infusion was stopped and the tissue allowed to recover for a maximum of 30min. After this period the procedure was repeated using progressively increasing concentrations of agonist, and in this way, whole concentration-effect curves obtained. Potency was determined by comparison of the concentration-effect curve thus constructed with that previously obtained for isoprenaline and expressed as equipotent concentration (isoprenaline = 1) i.e. EC50 test compound was calculated.
Duration of action was also measured for each response, and is the time taken from stopping the infusion to 50% recovery. Graphs were drawn for duration times against response magnitude, and from these, duration times for 50% maximum responses were determined.

[2] = system: guinea pigs; test: Oral administration to guinea pigs, adverse effects; type: in vivo; conditions: administered orally to guinea pigs at a dose of 5mg/kg
Description: In general, the compounds according to the invention are non-toxic at therapeutically useful doses.

T1 sequence (Q8K4Z4 whole entry): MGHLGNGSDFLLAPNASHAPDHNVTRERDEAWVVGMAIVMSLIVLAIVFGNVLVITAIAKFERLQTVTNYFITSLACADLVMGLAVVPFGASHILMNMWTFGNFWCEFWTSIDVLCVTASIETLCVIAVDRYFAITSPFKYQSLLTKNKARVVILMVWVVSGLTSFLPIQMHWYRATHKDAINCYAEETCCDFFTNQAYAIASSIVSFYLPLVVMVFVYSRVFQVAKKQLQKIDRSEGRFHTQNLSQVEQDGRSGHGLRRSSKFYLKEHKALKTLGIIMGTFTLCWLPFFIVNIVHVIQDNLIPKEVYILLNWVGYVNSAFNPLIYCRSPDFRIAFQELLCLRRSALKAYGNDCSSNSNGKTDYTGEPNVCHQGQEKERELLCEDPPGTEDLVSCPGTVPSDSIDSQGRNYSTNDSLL

Row | SMILES | Potency (Isoprenaline = 1) [1] | adverse effects [2]
1 | CC(CCCCCOCCc1ccccc1)NCC(O)c1ccc(O)c(CCO)c1 (stereo not shown) [Example 5, 2-Hydroxy-5-[1-hydroxy-2-[[1-metlayl-6-(2-phenylethoxy)hexyl]amino]ethyl]benzeneethanol hydrochloride (4:3)] | 0.17 | –
2 | Oc1ccc(C(O)CNCCCCCCOCCCCc2ccccc2)cc1O (stereo not shown) [Example 7, 4-[1-Hydroxy-2-[[6-(4-phenylbutoxy)hexyl]amino]ethyl]-1,2-benzenediol] | – | no adverse effects
3 | CC(CCCCCOCCc1ccccc1)NCC(O)c1ccc(O)c2[nH]c(=O)ccc12 (stereo not shown) [Example 6, 8-Hydroxy-5-[1-hydroxy-2-[[1-methyl-6-(2-phenylethoxy)hexyl]amino]ethyl]-2(1H)-quinolinone] | 0.16 | no adverse effects
4 | COc1ccc(CCOCCCCCCNCC(O)c2ccc(O)c(O)c2)cc1 (stereo not drawn) [Example 17, 4-[l-Hydroxy-2-[[6-[2-(4-methoxyphenyl)ethoxy]hexyl]amino]ethyl]-1,2-benzenediol] | 0.6 | –
5 | Oc1cc(O)cc(C(O)CNCCCCCCOCCCCc2ccccc2)c1 (stereo not shown) [Example 10, 5-[1-Hydroxy-2-[[6-(4-phenylbutoxy)hexyl]amino]ethyl]-1,3-benzenediol] | – | no adverse effects

More lines, main results first:

Row | Potency (Isoprenaline = 1) [1] | SMILES | adverse effects [2]
6 | 0.13 | CC(CCCCCOCCc1ccc(F)cc1)NCC(O)c1cc(O)cc(O)c1 (stereo not shown) [Example 14, 5-[2-[[6-[2-(4-Fluorophenyl)ethoxy]-1-methylhexyl]amino]-1-hydroxyethyl]-1,3-benzenediol, benzoate (salt)] | –
7 | 0.4 | CC(CCCCCOCCc1ccccc1)NC[C@H](O)c1ccc(O)c(O)c1 (stereo partly drawn) [Example 8, (1R)-4-[1-Hydroxy-2-[1-methyl-6-(2-phenylethoxy)hexyl]amino]ethyl-1,2-benzenediol.] | no adverse effects
8 | 0.15 | CC(CCCCCOCCc1ccccc1)NCC(O)c1cc(O)cc(O)c1 (stereo not shown) [Example 12, 5-[1-Hydroxy-2-[[1-methyl-6-(2-phenylethoxy)hexyl]amino]ethyl]-1,3-benzenediol benzoate (salt)] | –
